Source: patent US8114991B2, “Amino-1,3,5-triazines N-substituted with chiral bicyclic radicals, process for their preparation, compositions thereof, and their use as herbicides and plant growth regulators” (Bayer Cropscience AG, priority 2003, dated 2012)

How the values were obtained:
[1] = tested on: harmful plants such as Stellaria media, Lolium multiforum, Amaranthus retroflexus, Sinapis alba, Avena sativa and Setaria viridis; test: Pre-emergence effect on weeds (greenhouse pot test); assay type: in vivo; conditions: application rate of 1 kg or less of active ingredient per hectare; scored after 3 to 4 weeks by comparison with untreated controls
Method in brief: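 Seeds or rhizome pieces sown in sandy loam; test compounds (wettable powder or emulsion concentrate) applied pre-emergence to soil surface as aqueous suspension/emulsion at various dosages, 600 to 800 l water/ha. Greenhouse; plant/emergence damage scored visually after 3 to 4 weeks versus untreated controls.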

[2] = tested on: harmful plants such as Sinapis alba, Echinochloa crus-galli, Lolium multiflorum, Stellaria media, Cyperus iria, Amaranthus retroflexus, Setaria viridis, Avena …; test: Post-emergence effect on weeds (greenhouse pot test); assay type: in vivo; conditions: application rate of 2 kg or less of active ingredient per hectare; treated in the three-leaf stage; scored after approx. 3 to 4 weeks by comparison with untreated controls

| Structure (SMILES) | melting point | pre-emergence control of harmful plants (plant or emergence damage scored visually) [1] | herbicidal post-emergence activity against harmful plants (scored visually) [2] |
| --- | --- | --- | --- |
| C[C@@H](F)c1nc(N)nc(N[C@@H]2CCOc3ccccc32)n1 [Compound 1.20, 2-Amino-4-[(4R)4-chromanylamino]-6-[(1R)-1-fluoroethyl]-1,3,5-triazine] | 110 to 112 °C | very good pre-emergence control | very good herbicidal post-emergence activity |
| C[C@@H](F)c1nc(N)nc(N[C@H]2c3ccccc3C[C@@H]2C)n1 [Compound 2.1, 2-Amino-4-[(1R,2S)-2-methyl-1-indanylamino]-6-[(1R)-1-fluoroethyl]-1,3,5-triazine] | 146 to 150 °C | very good pre-emergence control | very good herbicidal post-emergence activity |
| Cc1nc(N)nc(N[C@@H]2CCc3ccccc32)n1 [Compound 8.1, 2-Amino-4-[(1R)-1-indanylamino]-6-methyl-1,3,5-triazine] | 94 to 96 °C | very good pre-emergence control | very good herbicidal post-emergence activity |
| Cc1nc(N)nc(N[C@@H]2CCOc3c(F)cccc32)n1 [Compound 8.238] |  | very good pre-emergence control | very good herbicidal post-emergence activity |
| CCc1nc(N)nc(N[C@@H]2CCOc3c(F)cccc32)n1 [Compound 8.239] |  | very good pre-emergence control | very good herbicidal post-emergence activity |
| CCCc1nc(N)nc(N[C@@H]2CCOc3c(F)cccc32)n1 [Compound 8.240] |  | very good pre-emergence control | very good herbicidal post-emergence activity |
| Cc1ccc2c(c1C)OCC[C@H]2Nc1nc(N)nc(C(C)(C)F)n1 [Compound 8.241] |  | very good pre-emergence control | very good herbicidal post-emergence activity |
| CCc1nc(N)nc(N[C@@H]2CCOc3c2ccc(C)c3C)n1 [Compound 8.242] |  | very good pre-emergence control | very good herbicidal post-emergence activity |
| COc1ccc2c(c1)[C@H](Nc1nc(N)nc(C(C)(C)F)n1)CC2 [Compound 8.243] |  | very good pre-emergence control | very good herbicidal post-emergence activity |
| CCc1nc(N)nc(N[C@@H]2CCc3ccc(OC)cc32)n1 [Compound 8.244] |  | very good pre-emergence control | very good herbicidal post-emergence activity |
| CCc1ccc2c(c1)[C@H](Nc1nc(N)nc(C(C)(C)F)n1)CC2 [Compound 8.245] |  | very good pre-emergence control | very good herbicidal post-emergence activity |
| CCc1ccc2c(c1)[C@H](Nc1nc(C)nc(N)n1)CC2 [Compound 8.246] |  | very good pre-emergence control | very good herbicidal post-emergence activity |
| CCc1ccc2c(c1)[C@H](Nc1nc(N)nc(C(C)C)n1)CC2 [Compound 8.247] |  | very good pre-emergence control | very good herbicidal post-emergence activity |
| CCc1ccc2c(c1)[C@H](Nc1nc(N)nc(CC)n1)CC2 [Compound 8.248] |  | very good pre-emergence control | very good herbicidal post-emergence activity |
| CCCc1nc(N)nc(N[C@@H]2CCc3ccc(CC)cc32)n1 [Compound 8.249] |  | very good pre-emergence control | very good herbicidal post-emergence activity |
| CCc1ccc2c(c1)[C@H](Nc1nc(N)nc(CCSC(F)(F)F)n1)CC2 [Compound 8.250] |  | very good pre-emergence control | very good herbicidal post-emergence activity |
| Cc1ccc2c(c1)[C@H](Nc1nc(N)nc(CCSC(F)(F)F)n1)CCC2 [Compound 8.251] |  | very good pre-emergence control | very good herbicidal post-emergence activity |
| Cc1cc(C)c2c(c1)[C@H](Nc1nc(N)nc(C(C)C)n1)CCC2 [Compound 8.252] |  | very good pre-emergence control | very good herbicidal post-emergence activity |
| COCc1nc(N)nc(N[C@@H]2CCCc3c(C)cc(C)cc32)n1 [Compound 8.253] |  | very good pre-emergence control | very good herbicidal post-emergence activity |
| Nc1nc(N[C@@H]2CCCc3ccccc32)nc(C(F)(F)F)n1 [Compound 8.254] |  | very good pre-emergence control | very good herbicidal post-emergence activity |
| N#CCc1nc(N)nc(N[C@@H]2CCCc3ccccc32)n1 [Compound 8.255] |  | very good pre-emergence control | very good herbicidal post-emergence activity |
| Nc1nc(N[C@@H]2CCCc3ccccc32)nc(C(F)F)n1 [Compound 8.256] |  | very good pre-emergence control | very good herbicidal post-emergence activity |
| CCCCc1nc(N)nc(N[C@@H]2CCCc3ccc(CC)cc32)n1 [Compound 8.257] |  | very good pre-emergence control | very good herbicidal post-emergence activity |
| CCC(F)c1nc(N)nc(N[C@H]2c3cc(C)ccc3C[C@@H]2C)n1 (stereo partly drawn) [Compound 9.37] |  | very good pre-emergence control | very good herbicidal post-emergence activity |
| CCCCc1nc(N)nc(N[C@H]2c3cc(C)ccc3C[C@@H]2C)n1 [Compound 9.66] |  | very good pre-emergence control | very good herbicidal post-emergence activity |
| Cc1ccc2c(c1)[C@H](Nc1nc(N)nc(C(C)F)n1)CC2 (stereo partly drawn) [Compound 10.2] |  | very good pre-emergence control | very good herbicidal post-emergence activity |
| CCC(F)c1nc(N)nc(N[C@@H]2CCc3ccc(C)cc32)n1 (stereo partly drawn) [Compound 10.37] |  | very good pre-emergence control | very good herbicidal post-emergence activity |
| CCC(F)c1nc(N)nc(N[C@@H]2CCCc3ccc(C)cc32)n1 (stereo partly drawn) [Compound 10.47] |  | very good pre-emergence control | very good herbicidal post-emergence activity |
| CCC(F)c1nc(N)nc(N[C@@H]2CCOc3ccc(C)cc32)n1 (stereo partly drawn) [Compound 10.57] |  | very good pre-emergence control | very good herbicidal post-emergence activity |
| CCCC(F)c1nc(N)nc(N[C@@H]2CCCc3ccc(C)cc32)n1 (stereo partly drawn) [Compound 10.66] |  | very good pre-emergence control | very good herbicidal post-emergence activity |
